In patent publication US7196063B1, “Peptides and pharmaceutical compositions comprising same” (NST NeuroSurvival Technologies Ltd., priority 1999, dated 2007):
Several values for one entry are separate records, joined by “and”; a condition that tells them apart may be missing. Equal entries are not always repeated. Entries after “also recorded” stand apart in the source; their conditions may differ. Where two headings read alike, the source gives them in different places.

Key:
[1] = system: Russell Viper Venom (RVV)-mediated clotting; assay: RVV coagulation test in normal plasma; format: biochemical
Protocol: Reactions were started by mixing 100 μl of RVV reagent, and 100 μl of quality control plasma collected from normal individuals (84670-11, Instrumentation Laboratory, Italy). Clotting time was detected by visual inspection following mixing the reaction ingredients in a test tube, until the suspension could no longer be aspirated with a pastuer pipette. Clotting time was measured by two separate researchers.
100 μl of LA screen was then added and clotting time was detected as described.
The control clotting time, when no compound was added to normal plasma was 40 seconds.

apoptotic HeLa cells = assay: Modified APTT test with apoptotic HeLa cells as pro-coagulant surface; format: cell-based
Protocol: Apoptotic and control HeLa cells were prepared as described for the FACS analysis. Equal numbers of apoptotic or control non-treated cells (5×10^4) in a volume of […], were mixed with 100 μl of normal plasma, incubated for 1 min at 37° C. in a bath and then calcified by addition of 100 μl of 25 mM CaCl2, and clotting time was measured. Inhibition of the pro-coagulant activity of the apoptotic cells by NST500 compounds was tested following pre-incubation of apoptotic cells for 20 min. at room temperature with increased concentrations of the different NST 500 compounds.
The results can be seen in FIG. 4B.

thrombin = target: T1, thrombin (Homo sapiens, UniProt P00734); assay: Direct effect on thrombin activity in vitro; format: biochemical; settings: commercially available thrombin and chromogenic substrate; not shown
T1 construct: purchased

HUVEC cells = assay: Thrombin generation by HUVEC cells; format: cell-based, Human
From the text: In vivo, vascular endothelial cells are known to catalyze the formation of thrombin, due to expression of PS on their plasma membrane, at which pro-coagulant complexes are assembled (Van Hardee W L et al., 1994, Biochem J. 302, 305–312). Endothelial cells (EC) play an active role in determining the pro-coagulant/anti-coagulant balance in the vascular system (Gimborne M A et al., 1995, Ann. N. Y. Acad Sci 748, 122–132). Perturbed endothelial cells dramatically increase their pro-coagulant state. […] (FIG. 4D). When HUVEC cells (1.5×10^5) were incubated with the S-2366 substrate, thrombin generation was evident after a lag time of 12.5 minutes, which reflects the time required to assemble a functional complex on the HUVEC surface.
The effect of NST516 compound on HUVEC mediated-thrombin generation was studied.

BeWo cells = assay: Binding to single trophoblast BeWo cells, fluorescent microscopy; format: cell-based, Human
Protocol: The Human choriocarcinoma cell line BeWo that express low levels of PS on its plasma membrane (Rote N S et al., 1995, American J. of Reproductive Immunology 33, 114–121), was obtained from ECACC, cat # 86082803 and maintained in Ham's F12+ medium (01095-1A, Bet-Haemek, Israel). The medium was supplemented with 2mM of L-Glutamine; 100 units/ml of penicillin; 100 μg/ml of streptomycin, and 10% fetal calf serum (Bet-Haemek). The cells were passaged using 0.05% trypsine/EDTA (03-054-1B, Bet-Haemek,).

activated platelets = settings: 2 μM
Protocol: Exposure of PS on the outer leaflet of platelets upon their activation is essential for efficient activation of coagulation factors. […] Fresh platelets were received from the Blood Bank in Beilinson Hospital, Israel. The platelets were centrifuged (10 minutes, 2700×g), washed and re-suspended in platelets buffer (137 mM NaCl, 2 mM MgCl2, 0.5 mM NaPi, 5 mM glucose and 20 mM Hepes pH 7.4). 100 μl of platelets were diluted 10 fold and activated for 10 minutes with 2 μM of the calcium ionophore A23187 in the presence of 5 mM of CaCl2. […] The platelets were then washed with platelets buffer and incubated with 5 μg/ml of streptavidin conjugated to fluorescein (FITC). Incubation was for 15 minutes at room temperature, followed by a wash and suspention in platelets buffer. The labeled platelets were subjected to a FACS analysis as described above.

cardiolipin = system: cardiolipin
From the text: The antiphospholipid antibody syndrom (APS) is a thrombophilic condition, characterized by a panel of antibodies that recognize anionic phospholipid-protein cofactor complexes. The antiphospholipid antibodies lupus anticoagulant and anticardiolipin, (present in high concentrations in SLE patients), are associated with several medical disorders including artherial and venous thrombosis, and recurrent pregnancy loss (Rand J H et al., 1998, Blood. 92, 1652–1660). […] Noncellular negatively charged phospholipid coated surface (cardiolipin) were chosen as a target for binding.
CL, (Diphosphatidylglycerol, c-1649, Sigma), prepared at 50 μg/ml in ethanol, was added to a 96 well plate (100 μl/well) using Immunolon 4 plates (Dynatech, Chantilly, Va.) and incubated for 16–20 hr for evaporation of ethanol. As control, wells were coated with ethanol only. The coated plates were washed 3 times with 100 μl of blocking buffer (PBS containing 0.3% gelatin (Sigma) and 1 mM EDTA) to block non specific binding. A 5 min incubation time was used between each wash. Normal plasma (Ilex, Italy, 84670-11) and plasma derived from SLE patients (either from Gradipore, Australia, LAHP-1, or from Biopool, Ventura, Calif.) were prepared according to the producer's instruction. The plasma was diluted 1/10 in the blocking buffer and was added to the CL and ethanol coated wells. […] Following 3 hr incubation, the plates were washed twice with PBS/BSA buffer (0.4% bovine serum albumine (BSA) in PBS). For detection of anti cardiolipin binding property of the tested plasma, the plates were incubated with a 1/10000 dilution of Peroxidase-conjugated affinity purified Goat anti-human IgG (Jackson Immunoresearch lab.) in PBS/BSA buffer for 1 hour. The plates were then washed 3 times with PBS/BSA buffer, and color reaction was developed by incubation with 100 ul of 0-phenylenedi-amine (OPD) dihydrochloride (Sigma p-7288) at a concentration of 0.4 mg/ml in 0.05 M phosphate citrate buffer, pH 5.0 supplemented with 4 ul of 30% hydrogen peroxide (Aldrich) for 10 ml mixture. To detect the level of NST500 compounds that were bound to CL, parallel wells were incubated with streptavidin conugated to OPD (SA-OPD, Jackson Immunoresearch lab.), that specifically recognize the biotinylated NST 500 compounds. The resulting colour changes were recorded at 405 nm using a Bio Tek Elx800 Eliza reader.

In the case of “Myristate-KVSFFCKNKEKKC-K (SEQ ID NO:1) (biotin) [NST513]”, the EC50 ([1]; RVV clotting time, read-out: EC50 (effective dose of 50%)) is reported as 3 to 5 µM, the “prolongation of clotting time (factor)” value ([1]; RVV test, normal plasma, 2.5–20 μM, control 40 seconds) is reported as 3.75 and 3.5 and the “effect on clotting time of apoptotic cells” value (apoptotic HeLa cells; 2.5–2.2 μM) is reported as “marked and dose dependent inhibition of clotting time; also recorded: dose-dependent effect”. For the same substance, the “increase of clotting time of apoptotic cells (factor)” value (apoptotic HeLa cells; 2.5–2.2 μM) was 3.2 times, the “clotting time of apoptotic cells” value (apoptotic HeLa cells; apoptotic cells alone 50 seconds, control cells 80 seconds) was 160 s and the “direct effect on thrombin activity” value (thrombin) was “no direct inhibitory effect on thrombin activity”. For the same substance, the “delay in thrombin generation” value (HUVEC cells) was 2.5 min, the “thrombin generation by HUVEC cells” value (HUVEC cells) was “dramatic inhibition of thrombin generation; also recorded: fully block thrombin generation; also recorded: slight inhibition of thrombin generation; also recorded: further delayed the lag period; also recorded: total blockage of thrombin formation” and the “thrombin generation by HUVEC cells, dose response” value (HUVEC cells) was “dose dependent inhibition of thrombin generation”. The “binding to BeWo cells” value (BeWo cells) was “Typical membrane labeling is observed; also recorded: Binding of the compound to the whole population of BeWo cells was demonstrated”, the “binding intensity (FITC mean value), activated vs control non-treated platelets” value (activated platelets) was 20 times and the “increase in the percentage of platelets stained with FITC upon activation” value (activated platelets; activated (A23187) vs control platelets) was 6 fold. For the same substance, the “displacement of plasma derived from SLE patients from cardiolipin” value (cardiolipin; 1 μM) was “did not exhibit displacement”, the “displacement of plasma derived from SLE patients from cardiolipin” value (cardiolipin; 10 μM) was “almost complete displacement” and the “inhibition of binding of plasma derived from SLE patients to cardiolipin, dose response” value (cardiolipin; 1–10 μM) was “marked displacement of IgG”.
